In the NIST ThermoML archive (doi:10.1021/je060271a):
Several values for one entry are separate records, joined by “and”; a condition that tells them apart may be missing. Equal entries are not always repeated.

Conditions: 323.16 K, Liquid, Vibrating tube method

CCCCCC(=O)OCC(COC(=O)CCCCC)(COC(=O)CCCCC)COC(=O)CCCCC [pentaerythritol tetrahexanoate]
Conditions | mass density
1057.9 kPa | 973.4 kg/m3
1108.4 kPa | 973.5 kg/m3
1111.9 kPa | 973.6 kg/m3
1116.1 kPa | 973.5 kg/m3
1120.2 kPa | 973.4 kg/m3
1124.1 kPa | 973.4 kg/m3
1169 kPa | 973.6 kg/m3
1173 kPa | 973.5 kg/m3
1178.4 kPa | 973.6 kg/m3
1182.7 kPa | 973.5 kg/m3
1188.3 kPa | 973.4 kg/m3
1192.5 kPa | 973.4 kg/m3
1197 kPa | 973.5 kg/m3
1201.3 kPa | 973.4 kg/m3
1206.2 kPa | 973.5 kg/m3
1211.4 kPa | 973.6 kg/m3
1215.4 kPa | 973.6 kg/m3
1219.4 kPa | 973.6 kg/m3
1224.6 kPa | 973.5 kg/m3
1228.9 kPa | 973.6 kg/m3
1234 kPa | 973.5 kg/m3
1239.2 kPa | 973.4 kg/m3
1336.1 kPa | 973.5 kg/m3
1340.9 kPa | 973.6 kg/m3
1346.8 kPa | 973.6 kg/m3
1352 kPa | 973.7 kg/m3
1357.4 kPa | 973.6 kg/m3
1362.4 kPa | 973.6 kg/m3
1368 kPa | 973.6 kg/m3
1372.9 kPa | 973.7 kg/m3
1383.8 kPa | 973.7 kg/m3
1389.5 kPa | 973.7 kg/m3
1395.4 kPa | 973.6 kg/m3
1400.6 kPa | 973.7 kg/m3
1405.7 kPa | 973.7 kg/m3
1542.7 kPa | 973.7 kg/m3
1548.7 kPa | 973.7 kg/m3
1555.9 kPa | 973.7 kg/m3
1561.4 kPa | 973.8 kg/m3
1568.9 kPa | 973.8 kg/m3
1574.8 kPa | 973.8 kg/m3
1580.3 kPa | 973.9 kg/m3
1587.3 kPa | 973.9 kg/m3
1592.8 kPa | 974 kg/m3
1784.1 kPa | 973.9 kg/m3
1792.4 kPa | 974 kg/m3
1799.4 kPa | 973.9 kg/m3
1808.1 kPa | 974 kg/m3
1815.2 kPa | 974 kg/m3
1823.9 kPa | 974 kg/m3
1831.3 kPa | 974 kg/m3
1839.8 kPa | 974 kg/m3
1848.7 kPa | 974 kg/m3
1856.1 kPa | 973.9 kg/m3
1864.5 kPa | 974 kg/m3
1872.1 kPa | 974 kg/m3
1879.9 kPa | 973.9 kg/m3
1889.3 kPa | 974 kg/m3
1998.3 kPa | 974 kg/m3
2007.3 kPa | 974 kg/m3
2015.3 kPa | 974.1 kg/m3
2024.8 kPa | 974.2 kg/m3
2032.8 kPa | 974.2 kg/m3
2042.2 kPa | 974.1 kg/m3
2051.9 kPa | 974.2 kg/m3
2078.2 kPa | 974.2 kg/m3
2086.8 kPa | 974.2 kg/m3
2097.3 kPa | 974.1 kg/m3
2105.3 kPa | 974.2 kg/m3
2275.9 kPa | 974.3 kg/m3
2285.6 kPa | 974.2 kg/m3
2297.5 kPa | 974.3 kg/m3
2309.2 kPa | 974.3 kg/m3
2319 kPa | 974.3 kg/m3
2329.5 kPa | 974.3 kg/m3
2339.5 kPa | 974.4 kg/m3
2350.8 kPa | 974.3 kg/m3
2360.3 kPa | 974.3 kg/m3
2372.6 kPa | 974.1 kg/m3
2382.7 kPa | 974.2 kg/m3
2394.7 kPa | 974.5 kg/m3
2404.4 kPa | 974.2 kg/m3
2416.5 kPa | 974.4 kg/m3
2428.5 kPa | 974.4 kg/m3
2438.7 kPa | 974.4 kg/m3
2448.6 kPa | 974.5 kg/m3
2460.9 kPa | 974.4 kg/m3
2471.7 kPa | 974.4 kg/m3
2484.5 kPa | 974.5 kg/m3
3633.2 kPa | 975.3 kg/m3
3649.5 kPa | 975.3 kg/m3
3663.4 kPa | 975.2 kg/m3
3679.8 kPa | 975.3 kg/m3
3696.6 kPa | 975.2 kg/m3
3710.8 kPa | 975.3 kg/m3
3725 kPa | 975.2 kg/m3
3741.8 kPa | 975.2 kg/m3
3756 kPa | 975.3 kg/m3
3773.4 kPa | 975.3 kg/m3
3790.9 kPa | 975.4 kg/m3
9966.7 kPa | 979.5 kg/m3
9977.9 kPa | 979.5 kg/m3
10002 kPa | 979.7 kg/m3
10012 kPa | 979.7 kg/m3
10025 kPa | 979.6 kg/m3
10037 kPa | 979.6 kg/m3
10040 kPa | 979.6 kg/m3
10048 kPa | 979.7 kg/m3
10060 kPa | 979.7 kg/m3
10071 kPa | 979.8 kg/m3
10084 kPa | 979.7 kg/m3
10096 kPa | 979.7 kg/m3
11088 kPa | 980.3 kg/m3
11101 kPa | 980.4 kg/m3
11112 kPa | 980.3 kg/m3
11122 kPa | 980.3 kg/m3
11136 kPa | 980.4 kg/m3
11150 kPa | 980.5 kg/m3
11155 kPa | 980.3 kg/m3
11157 kPa | 980.4 kg/m3
11160 kPa | 980.4 kg/m3
11163 kPa | 980.4 kg/m3
11168 kPa | 980.4 kg/m3
11174 kPa | 980.3 kg/m3
11186 kPa | 980.4 kg/m3
11198 kPa | 980.4 kg/m3
11199 kPa | 980.3 kg/m3
11200 kPa | 980.4 kg/m3
12660 kPa | 981.3 kg/m3
12684 kPa | 981.3 kg/m3
12713 kPa | 981.5 kg/m3
12737 kPa | 981.5 kg/m3
12767 kPa | 981.4 kg/m3
12791 kPa | 981.5 kg/m3
12819 kPa | 981.5 kg/m3
12848 kPa | 981.4 kg/m3
12871 kPa | 981.5 kg/m3
12899 kPa | 981.4 kg/m3
15446 kPa | 983.2 kg/m3
15470 kPa | 983.2 kg/m3
15500 kPa | 983.1 kg/m3
16331 kPa | 983.8 kg/m3 and 983.7 kg/m3
16333 kPa | 983.7 kg/m3
16334 kPa | 983.8 kg/m3 and 983.7 kg/m3
16336 kPa | 983.8 kg/m3
